Laboratory results: patent US20230131899A1, “INHIBITORS OF MICROBIALLY INDUCED AMYLOID” (Axial Therapeutics, Inc., priority 2020, published 2023)
Like-named read-outs stand apart in the source and are kept apart here.

Tested on: CsgA gene expression (csgBAC promoter-GFP reporter) in E. coli UTI89
Assay: In vitro live cell fluorescent reporter assay of CsgA transcription (Reporter Assay)
Format: cell-based
Settings: Escherichia coli
Outline: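 Compounds at 0.14–100 μM (1% DMSO final) incubated 20 h at 27 °C in YESCA broth with UTI89 carrying a single-copy GFP reporter under the csgBAC intergenic promoter region, inoculum OD600 0.003. Fluorescence normalized to vehicle wells gave IC50 and 50%-of-vehicle concentration; OD600 reduction >10% flagged growth impact.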

[1] = read-out: Reporter Assay Abs IC50 (activity range), median Abs IC50 in the CsgA reporter assay, class symbol
[2] = read-out: Reporter Assay Abs IC50 (μM), median Abs IC50 in the CsgA reporter assay, N/A = maximum expression reduction is <50% of control

Row | Compound | IC50 [1] | IC50 [2]
1 | O=C(O)C1CSc2c(-c3cccc(C(F)(F)F)c3)c(Cc3cccc4ccccc34)cc(=O)n21 (racemic) [Compound 011, 7-(naphthalen-1-ylmethyl)-5-oxo-8-(3-(trifluoromethyl)phenyl)-2,3-dihydro-5H-thiazolo[3,2-a]pyridine-3-carboxylic acid] | 4.6 to 10 µM | 5.8 µM
2 | CCCN1CC(C(=O)O)n2c(c(-c3cccc(C(F)(F)F)c3)c(Cc3cccc4ccccc34)cc2=O)S1(=O)=O (racemic) [Compound 016, 8-(naphthalen-1-ylmethyl)-6-oxo-2-propyl-9-(3-(trifluoromethyl)phenyl)-3,4-dihydro-2H,6H-pyrido[1,2-e][1,2,5]thiadiazine-4-carboxylic acid 1,1-dioxide] | 4.6 to 10 µM | 5 µM
3 | Nc1c(Cc2cccc3ccccc23)c(-c2cccc(C(F)(F)F)c2)c2n(c1=O)C(C(=O)O)CS2 (racemic) [Compound 020, 6-amino-7-(naphthalen-1-ylmethyl)-5-oxo-8-(3-(trifluoromethyl)phenyl)-2,3-dihydro-5H-thiazolo[3,2-a]pyridine-3-carboxylic acid] | 1.3 to 4.5 µM | 3.9 µM
4 | CCCCCN1CC(C(=O)O)n2c(c(-c3cccc(C(F)(F)F)c3)c(Cc3cccc4ccccc34)cc2=O)S1(=O)=O (racemic) [Compound 025, 8-(naphthalen-1-ylmethyl)-6-oxo-2-pentyl-9-(3-(trifluoromethyl)phenyl)-3,4-dihydro-2H,6H-pyrido[1,2-e][1,2,5]thiadiazine-4-carboxylic acid 1,1-dioxide] | 1.3 to 4.5 µM | 1.9 µM
5 | O=C(O)C1C[S+]([O-])c2c(-c3cccc(C(F)(F)F)c3)c(Cc3cccc4ccccc34)cc(=O)n21 (racemic) [Compound 027b, 7-(naphthalen-1-ylmethyl)-5-oxo-8-(3-(trifluoromethyl)phenyl)-2,3-dihydro-5H-thiazolo[3,2-a]pyridine-3-carboxylic acid 1-oxide] | > 10 µM | 77.5 µM
6 | O=C(O)[C@@H]1CS(=O)(=O)c2c(-c3cccc(C(F)(F)F)c3)c(Cc3cccc4ccccc34)cc(=O)n21 (single isomer, unassigned) [Compound 010a, 7-(naphthalen-1-ylmethyl)-5-oxo-8-(3-(trifluoromethyl)phenyl)-2,3-dihydro-5H-thiazolo[3,2-a]pyridine-3-carboxylic acid 1,1-dioxide] | > 10 µM | 43.9 µM
7 | O=C(O)[C@H]1CS(=O)(=O)c2c(-c3cccc(C(F)(F)F)c3)c(Cc3cccc4ccccc34)cc(=O)n21 (single isomer, unassigned) [Compound 010b, 7-(naphthalen-1-ylmethyl)-5-oxo-8-(3-(trifluoromethyl)phenyl)-2,3-dihydro-5H-thiazolo[3,2-a]pyridine-3-carboxylic acid 1,1-dioxide] | > 10 µM | 58.5 µM
8 | O=C(O)C1CSc2c(-c3cccc(C(F)(F)F)c3)c(Cc3cccc4ccccc34)cc(=O)n21 (single isomer, unassigned) [Compound 011a, 7-(naphthalen-1-ylmethyl)-5-oxo-8-(3-(trifluoromethyl)phenyl)-2,3-dihydro-5H-thiazolo[3,2-a]pyridine-3-carboxylic acid] | 1.3 to 4.5 µM | 4.4 µM
9 | CCN1CC(C(=O)O)n2c(c(-c3cccc(C(F)(F)F)c3)c(Cc3cccc4ccccc34)cc2=O)S1(=O)=O (single isomer, unassigned) [Compound 015a, 2-ethyl-8-(naphthalen-1-ylmethyl)-6-oxo-9-(3-(trifluoromethyl)phenyl)-3,4-dihydro-2H,6H-pyrido[1,2-e][1,2,5]thiadiazine-4-carboxylic acid 1,1-dioxide] | > 10 µM | 21.7 µM
10 | COc1ccc(CN2C[C@@H](C(=O)O)n3c(c(-c4cccc(C(F)(F)F)c4)c(Cc4cccc5ccccc45)cc3=O)S2(=O)=O)cc1 (single isomer, unassigned) [Compound 026a] | 1.3 to 4.5 µM | 2 µM
11 | CN(C)CCN1CC(C(=O)O)n2c(c(-c3cccc(C(F)(F)F)c3)c(Cc3cccc4ccccc34)cc2=O)S1(=O)=O (stereo not drawn) [Compound 017, 2-(2-(dimethylamino)ethyl)-8-(naphthalen-1-ylmethyl)-6-oxo-9-(3-(trifluoromethyl)phenyl)-3,4-dihydro-2H,6H-pyrido[1,2-e][1,2,5]thiadiazine-4-carboxylic acid 1,1-dioxide] | 1.3 to 4.5 µM | 2.7 µM
12 | O=C(O)CN1CC(C(=O)O)n2c(c(-c3cccc(C(F)(F)F)c3)c(Cc3cccc4ccccc34)cc2=O)S1(=O)=O (stereo not drawn) [Compound 018, 2-(carboxymethyl)-8-(naphthalen-1-ylmethyl)-6-oxo-9-(3-(trifluoromethyl)phenyl)-3,4-dihydro-2H,6H-pyrido[1,2-e][1,2,5]thiadiazine-4-carboxylic acid 1,1-dioxide] | > 10 µM | 148 µM
13 | O=C(O)C1CSc2c(-c3cccc(C(F)(F)F)c3)c(Cc3cccc4ccccc34)nc(=O)n21 (stereo not drawn) [Compound 022, 7-(naphthalen-1-ylmethyl)-5-oxo-8-(3-(trifluoromethyl)phenyl)-2,3-dihydro-5H-thiazolo[3,2-c]pyrimidine-3-carboxylic acid] | 1.3 to 4.5 µM | 4.1 µM
14 | Nc1c(Cc2cccc3ccccc23)c(-c2cccc(C(F)(F)F)c2)c2n(c1=O)C(C(=O)O)CS2(=O)=O (stereo not drawn) [Compound 023, 6-amino-7-(naphthalen-1-ylmethyl)-5-oxo-8-(3-(trifluoromethyl)phenyl)-2,3-dihydro-5H-thiazolo[3,2-a]pyridine-3-carboxylic acid 1,1-dioxide] | > 10 µM | 19.6 µM
15 | C=CCCN1CC(C(=O)O)n2c(c(-c3cccc(C(F)(F)F)c3)c(Cc3cccc4ccccc34)cc2=O)S1(=O)=O (stereo not drawn) [Compound 024, 2-(but-3-en-1-yl)-8-(naphthalen-1-ylmethyl)-6-oxo-9-(3-(trifluoromethyl)phenyl)-3,4-dihydro-2H,6H-pyrido[1,2-e][1,2,5]thiadiazine-4-carboxylic acid 1,1-dioxide] | 4.6 to 10 µM | 9.9 µM
16 | NC(=O)CN1CC(C(=O)O)n2c(c(-c3cccc(C(F)(F)F)c3)c(Cc3cccc4ccccc34)cc2=O)S1(=O)=O (stereo not drawn) [Compound 028, 2-(2-amino-2-oxoethyl)-8-(naphthalen-1-ylmethyl)-6-oxo-9-(3-(trifluoromethyl)phenyl)-3,4-dihydro-2H,6H-pyrido[1,2-e][1,2,5]thiadiazine-4-carboxylic acid 1,1-dioxide] | > 10 µM | 18.2 µM
17 | CN1CC(C(N)=O)n2c(c(-c3cccc(C(F)(F)F)c3)c(Cc3cccc4ccccc34)cc2=O)S1(=O)=O (stereo not drawn) [Compound 030, 2-methyl-8-(naphthalen-1-ylmethyl)-6-oxo-9-(3-(trifluoromethyl)phenyl)-3,4-dihydro-2H,6H-pyrido[1,2-e][1,2,5]thiadiazine-4-carboxamide 1,1-dioxide] | 4.6 to 10 µM | 5 µM
18 | CN1CC(C(=O)O)n2c(c(-c3cccc(C(F)(F)F)c3)c(Cc3cccc4ccccc34)c(N)c2=O)S1(=O)=O (stereo not drawn) [Compound 074, 7-amino-2-methyl-8-(naphthalen-1-ylmethyl)-6-oxo-9-(3-(trifluoromethyl)phenyl)-3,4-dihydro-2H,6H-pyrido[1,2-e][1,2,5]thiadiazine-4-carboxylic acid 1,1-dioxide] | > 10 µM | 29.2 µM
